Measured values taken from US12077503B2, “Substituted cyclic amides and their use as herbicides” (FMC CORPORATION, priority 2015, dated 2024).

Tests used:
Assay type in all cases: in vivo
Kochia (Kochia scoparia) [1] = assay: Test A preemergence; conditions: for Kochia plant response rating (0 to 100 scale, 0 is no effect, 100 is complete control): visual injury approx. 10 d
Summary of the method: (§1)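 Preemergence soil spray on seeded pots or post-emergence spray on 1–2 leaf plants, in loam–sand blend. Greenhouse ~10 d. Visual rating 0–100 against untreated plants.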

[2] = system: barnyardgrass (Echinochloa crus-galli); assay: Test A preemergence; conditions: for Barnyardgrass plant response rating (0 to 100 scale, 0 is no effect, 100 is complete control): visual injury approx. 10 d
Summary of the method: as §1

[3] = system: giant foxtail (Setaria faberii); assay: Test A preemergence; conditions: for Foxtail, Giant plant response rating (0 to 100 scale, 0 is no effect, 100 is complete control): visual injury approx. 10 d
Summary of the method: as §1

[4] = system: pigweed (Amaranthus retroflexus); assay: Test A preemergence; conditions: for Pigweed plant response rating (0 to 100 scale, 0 is no effect, 100 is complete control): visual injury approx. 10 d
[5] = system: ragweed (common ragweed, Ambrosia elatior); assay: Test A preemergence; conditions: for Ragweed plant response rating (0 to 100 scale, 0 is no effect, 100 is complete control): visual injury approx. 10 d
Summary of the method: as §1

[6] = system: ryegrass, Italian (Italian ryegrass, Lolium multiflorum); assay: Test A preemergence; conditions: for Ryegrass, Italian plant response rating (0 to 100 scale, 0 is no effect, 100 is complete control): visual injury approx. 10 d
Summary of the method: as §1

[7] = system: Galium (catchweed bedstraw, Galium aparine); assay: Test A postemergence
Summary of the method: as §1

Kochia (Kochia scoparia) [8] = assay: Test A postemergence
Summary of the method: as §1

[9] = system: barnyardgrass (Echinochloa crus-galli); assay: Test A postemergence; conditions: for Barnyardgrass plant response rating: visual injury rating on 0 to 100 scale (0 no effect, 100 complete control)
Summary of the method: as §1

[10] = system: blackgrass (Alopecurus myosuroides); assay: Test A postemergence; conditions: for Blackgrass plant response rating: visual injury rating on 0 to 100 scale (0 no effect, 100 complete control)
Summary of the method: as §1

corn (Zea mays) = assay: Test A postemergence
Summary of the method: as §1

[11] = system: giant foxtail (Setaria faberii); assay: Test A postemergence
Summary of the method: as §1

[12] = system: pigweed (Amaranthus retroflexus); assay: Test A postemergence
Summary of the method: as §1

[13] = system: ragweed (common ragweed, Ambrosia elatior); assay: Test A postemergence
Summary of the method: as §1

[14] = system: ryegrass, Italian (Italian ryegrass, Lolium multiflorum); assay: Test A postemergence
Summary of the method: as §1

[15] = system: wheat (Triticum aestivum); assay: Test A postemergence
Summary of the method: as §1

[16] = system: barnyardgrass (Echinochloa crus-galli); assay: Test B flooded paddy test; conditions: Flood, 250 g ai/ha; 0 to 100 scale where 0 is no effect and 100 is complete control; 13 to 15 d
Summary of the method: (§2)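 Response scored visually against untreated controls, 0 = no effect and 100 = complete control, 13–15 d after treatment in the greenhouse. Compounds added to paddy water held 3 cm above soil surface. Treatment given at 2-leaf stage.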

[17] = system: ducksalad (Heteranthera limosa); assay: Test B flooded paddy test; conditions: Flood, 250 g ai/ha; 0 to 100 scale where 0 is no effect and 100 is complete control; 13 to 15 d
Summary of the method: as §2

rice (Oryra sativa) = assay: Test B flooded paddy test; conditions: Flood, 250 g ai/ha; 0 to 100 scale where 0 is no effect and 100 is complete control; 13 to 15 d
Summary of the method: as §2

[18] = system: sedge, umbrella (small-flower umbrella sedge, Cyperus difformis); assay: Test B flooded paddy test; conditions: Flood, 250 g ai/ha; 0 to 100 scale where 0 is no effect and 100 is complete control; 13 to 15 d
Summary of the method: as §2

[19] = 125 g ai/ha, Preemergence, visual injury after approximately 10 d, 0 to 100 scale where 0 is no effect and 100 is complete control
[20] = 125 g ai/ha, postemergence, visual rating after approx. 10 d, 0 to 100 scale (0 no effect, 100 complete control)
[21] = Postemergence, 500 g ai/ha, 0 to 100 scale where 0 is no effect and 100 is complete control
[22] = 500 g ai/ha, preemergence, 0 to 100 scale, 0 = no effect, 100 = complete control
[23] = 500 g ai/ha, postemergence, visual injury, 0 to 100 scale (0 no effect, 100 complete control), approx. 10 d
[24] = 125 g ai/ha, preemergence, 0 to 100 scale (0 no effect, 100 complete control)
[25] = 125 g ai/ha, postemergence, visual injury rating on 0 to 100 scale (0 no effect, 100 complete control), approx. 10 d
[26] = 500 g ai/ha, postemergence, 0 to 100 scale, 0 no effect, 100 complete control
[27] = 125 g ai/ha, postemergence, approx. 10 d

O=C1NCC(c2cc(C(F)(F)F)ccc2F)C1C(=O)Nc1ccccc1F (centres unmarked) [Compound 593]
Plant response rating, Kochia (Kochia (Kochia scoparia) [1]; [19]): 0
Kochia plant response rating (0 to 100 scale, 0 is no effect, 100 is complete control) (Kochia (Kochia scoparia) [1]; Preemergence, 500 g ai/ha): 0
Plant response rating, Barnyardgrass [2, 19]: 90
Barnyardgrass plant response rating (0 to 100 scale, 0 is no effect, 100 is complete control) ([2]; Preemergence, 500 g ai/ha): 90
Plant response rating, Foxtail, Giant [3, 19]: 90
Foxtail, Giant plant response rating (0 to 100 scale, 0 is no effect, 100 is complete control) ([3]; Preemergence, 500 g ai/ha): 90
Pigweed plant response rating (0 to 100 scale, 0 is no effect, 100 is complete control) ([4]; Preemergence, 500 g ai/ha): 0
Plant response rating, Ragweed [5, 19]: 0
Ragweed plant response rating (0 to 100 scale, 0 is no effect, 100 is complete control) ([5]; Preemergence, 500 g ai/ha): 0
Plant response rating, Ryegrass, Italian [6, 19]: 0
Ryegrass, Italian plant response rating (0 to 100 scale, 0 is no effect, 100 is complete control) ([6]; Preemergence, 500 g ai/ha): 50
Plant response rating, Galium [7, 20]: 0
Plant response rating, Galium [7, 21]: 20
Plant response rating, Kochia (Kochia (Kochia scoparia) [8]; [20]): 0
Plant response rating, Kochia (Kochia (Kochia scoparia) [8]; [21]): 0
Plant response rating, Barnyardgrass [9, 20]: 90
Plant response rating, Barnyardgrass [9, 21]: 90
Plant response rating, Blackgrass [10, 20]: 50
Plant response rating, Blackgrass [10, 21]: 60
Plant response rating, Corn (corn (Zea mays); [20]): 30
Plant response rating, Corn (corn (Zea mays); [21]): 70
Plant response rating, Foxtail, Giant [11, 20]: 90
Plant response rating, Foxtail, Giant [11, 21]: 90
Plant response rating, Pigweed [12, 20]: 0
Plant response rating, Pigweed [12, 21]: 0
Plant response rating, Ragweed [13, 20]: 0
Plant response rating, Ragweed [13, 21]: 0
Plant response rating, Ryegrass, Italian [14, 20]: 0
Plant response rating, Ryegrass, Italian [14, 21]: 30
Plant response rating, Wheat [15, 20]: 0
Plant response rating, Wheat [15, 21]: 40
Plant response rating, Barnyardgrass [16]: 60
Plant response rating, Ducksalad [17]: 80
Plant response rating, Rice (rice (Oryra sativa)): 15
Plant response rating, Sedge, Umbrella [18]: 0

CCc1cc(C2CNC(=O)C2C(=O)Nc2ccccc2F)cs1 (racemic) [Compound 657]
Plant response rating, Kochia (Kochia (Kochia scoparia) [1]; [19]): 20
Plant response rating, Kochia (Kochia (Kochia scoparia) [1]; [22]): 40
Plant response rating, Barnyardgrass [2, 19]: 90
Plant response rating, Barnyardgrass [2, 22]: 90
Plant response rating, Foxtail, Giant [3, 19]: 90
Plant response rating, Foxtail, Giant [3, 22]: 90
Plant response rating, Pigweed [4, 19]: 20
Plant response rating, Pigweed [4, 22]: 30
Plant response rating, Ragweed [5, 19]: 20
Plant response rating, Ragweed [5, 22]: 20
Plant response rating, Ryegrass, Italian [6, 19]: 20
Plant response rating, Ryegrass, Italian [6, 22]: 30
Plant response rating, Galium [7, 20]: 0
Plant response rating, Galium [7, 23]: 30
Plant response rating, Kochia (Kochia (Kochia scoparia) [8]; [20]): 0
Plant response rating, Kochia (Kochia (Kochia scoparia) [8]; [23]): 0
Plant response rating, Barnyardgrass [9, 20]: 90
Plant response rating, Barnyardgrass [9, 23]: 90
Plant response rating, Blackgrass [10, 20]: 0
Plant response rating, Blackgrass [10, 23]: 30
Plant response rating, Corn (corn (Zea mays); [20]): 0
Plant response rating, Corn (corn (Zea mays); [23]): 0
Plant response rating, Foxtail, Giant [11, 20]: 0
Plant response rating, Foxtail, Giant [11, 23]: 60
Plant response rating, Pigweed [12, 20]: 0
Plant response rating, Pigweed [12, 23]: 0
Plant response rating, Ragweed [13, 20]: 0
Plant response rating, Ragweed [13, 23]: 0
Plant response rating, Ryegrass, Italian [14, 20]: 0
Plant response rating, Ryegrass, Italian [14, 23]: 0
Plant response rating, Wheat [15, 20]: 0
Plant response rating, Wheat [15, 23]: 0
Plant response rating, Barnyardgrass [16]: 40
Plant response rating, Ducksalad [17]: 100
Plant response rating, Rice (rice (Oryra sativa)): 0
Plant response rating, Sedge, Umbrella [18]: 0

Cc1cc(C2CNC(=O)C2C(=O)Nc2ccc(F)c(F)c2F)ccc1F (centres unmarked) [Compound 401]
Plant response rating, Kochia (Kochia (Kochia scoparia) [1]; [24]): 50
Kochia plant response rating (0 to 100 scale, 0 is no effect, 100 is complete control) (Kochia (Kochia scoparia) [1]; Preemergence, 500 g ai/ha): 80
Plant response rating, Barnyardgrass [2, 24]: 90
Barnyardgrass plant response rating (0 to 100 scale, 0 is no effect, 100 is complete control) ([2]; Preemergence, 500 g ai/ha): 90
Plant response rating, Foxtail, Giant [3, 24]: 80
Foxtail, Giant plant response rating (0 to 100 scale, 0 is no effect, 100 is complete control) ([3]; Preemergence, 500 g ai/ha): 90
Plant response rating, Pigweed [4, 24]: 20
Pigweed plant response rating (0 to 100 scale, 0 is no effect, 100 is complete control) ([4]; Preemergence, 500 g ai/ha): 50
Plant response rating, Ragweed [5, 24]: 0
Ragweed plant response rating (0 to 100 scale, 0 is no effect, 100 is complete control) ([5]; Preemergence, 500 g ai/ha): 50
Plant response rating, Ryegrass, Italian [6, 24]: 0
Ryegrass, Italian plant response rating (0 to 100 scale, 0 is no effect, 100 is complete control) ([6]; Preemergence, 500 g ai/ha): 40
Galium plant response rating [7, 25]: 50
Plant response rating, Galium [7, 26]: 60
Kochia plant response rating (Kochia (Kochia scoparia) [8]; [25]): 50
Plant response rating, Kochia (Kochia (Kochia scoparia) [8]; [26]): 60
Barnyardgrass plant response rating [9, 27]: 90
Plant response rating, Barnyardgrass [9, 26]: 90
Blackgrass plant response rating [10, 27]: 0
Plant response rating, Blackgrass [10, 26]: 50
Corn plant response rating (corn (Zea mays); [25]): 0
Plant response rating, Corn (corn (Zea mays); [26]): 40
Foxtail, Giant plant response rating [11, 25]: 30
Plant response rating, Foxtail, Giant [11, 26]: 70
Pigweed plant response rating [12, 25]: 0
Plant response rating, Pigweed [12, 26]: 40
Ragweed plant response rating [13, 25]: 30
Plant response rating, Ragweed [13, 26]: 50
Ryegrass, Italian plant response rating [14, 25]: 30
Plant response rating, Ryegrass, Italian [14, 26]: 60
Wheat plant response rating [15, 25]: 20
Plant response rating, Wheat [15, 26]: 70
Plant response rating, Barnyardgrass [16]: 70
Plant response rating, Ducksalad [17]: 100
Plant response rating, Rice (rice (Oryra sativa)): 25
Plant response rating, Sedge, Umbrella [18]: 0

CN1CC(c2cccc(OC(F)(F)C(F)F)c2)C(C(=O)Nc2ccccc2F)C1=O (centres unmarked) [Compound 539]
Plant response rating, Kochia (Kochia (Kochia scoparia) [1]; [19]): 60
Kochia plant response rating (0 to 100 scale, 0 is no effect, 100 is complete control) (Kochia (Kochia scoparia) [1]; Preemergence, 500 g ai/ha): 70
Plant response rating, Barnyardgrass [2, 19]: 90
Barnyardgrass plant response rating (0 to 100 scale, 0 is no effect, 100 is complete control) ([2]; Preemergence, 500 g ai/ha): 90
Plant response rating, Foxtail, Giant [3, 19]: 90
Foxtail, Giant plant response rating (0 to 100 scale, 0 is no effect, 100 is complete control) ([3]; Preemergence, 500 g ai/ha): 90
Plant response rating, Pigweed [4, 19]: 40
Pigweed plant response rating (0 to 100 scale, 0 is no effect, 100 is complete control) ([4]; Preemergence, 500 g ai/ha): 80
Plant response rating, Ragweed [5, 19]: 0
Ragweed plant response rating (0 to 100 scale, 0 is no effect, 100 is complete control) ([5]; Preemergence, 500 g ai/ha): 70
Plant response rating, Ryegrass, Italian [6, 19]: 30
Ryegrass, Italian plant response rating (0 to 100 scale, 0 is no effect, 100 is complete control) ([6]; Preemergence, 500 g ai/ha): 50
Plant response rating, Galium [7, 20]: 70
Plant response rating, Galium [7, 21]: 70
Plant response rating, Kochia (Kochia (Kochia scoparia) [8]; [20]): 40
Plant response rating, Kochia (Kochia (Kochia scoparia) [8]; [21]): 70
Barnyardgrass plant response rating [9, 27]: 90
Plant response rating, Barnyardgrass [9, 21]: 90
Blackgrass plant response rating [10, 27]: 50
Plant response rating, Blackgrass [10, 21]: 80
Plant response rating, Corn (corn (Zea mays); [20]): 70
Plant response rating, Corn (corn (Zea mays); [21]): 90
Plant response rating, Foxtail, Giant [11, 20]: 90
Plant response rating, Foxtail, Giant [11, 21]: 90
Plant response rating, Pigweed [12, 20]: 20
Plant response rating, Pigweed [12, 21]: 50
Plant response rating, Ragweed [13, 20]: 0
Plant response rating, Ragweed [13, 21]: 50
Plant response rating, Ryegrass, Italian [14, 20]: 0
Plant response rating, Ryegrass, Italian [14, 21]: 70
Plant response rating, Wheat [15, 20]: 50
Plant response rating, Wheat [15, 21]: 70
Plant response rating, Barnyardgrass [16]: 65
Plant response rating, Ducksalad [17]: 95
Plant response rating, Rice (rice (Oryra sativa)): 0
Plant response rating, Sedge, Umbrella [18]: 0
